Results reported in PubChem BioAssay (NCI).
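Growth conditions: 96-well plates. Treatment: test compound, 48 hours, 5 concentrations. Analysis: linear interpolation between bracketing concentrations; unreached endpoints set to highest concentration. TGI: concentration producing complete growth inhibition.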

Tests used:
Assay in all cases: NCI anticancer screen, dose series, 48 h
A549 NSCLC = system: A549 NSCLC
COLO 205 colon = system: COLO 205 colon
HCT-116 colon = system: HCT-116 colon
HCT-15 colon = system: HCT-15 colon
HOP-62 NSCLC = system: HOP-62 NSCLC
LOX IMVI melanoma = system: LOX IMVI melanoma
MCF7 breast = system: MCF7 breast
OVCAR-3 ovarian = system: OVCAR-3 ovarian
RXF 393 renal = system: RXF 393 renal
SF-539 CNS = system: SF-539 CNS
SK-MEL-2 melanoma = system: SK-MEL-2 melanoma
SK-MEL-28 melanoma = system: SK-MEL-28 melanoma
SK-OV-3 ovarian = system: SK-OV-3 ovarian
SN12C renal = system: SN12C renal
SNB-19 CNS = system: SNB-19 CNS
SNB-75 CNS = system: SNB-75 CNS
SW-620 colon = system: SW-620 colon
U251 CNS = system: U251 CNS
UACC-257 melanoma = system: UACC-257 melanoma
UACC-62 melanoma = system: UACC-62 melanoma

| SMILES | TGI (A549 NSCLC) [µM] | TGI (COLO 205 colon) [µM] | TGI (HCT-116 colon) [µM] | TGI (HCT-15 colon) [µM] | TGI (HOP-62 NSCLC) [µM] | TGI (LOX IMVI melanoma) [µM] | TGI (MCF7 breast) [µM] | TGI (OVCAR-3 ovarian) [µM] | TGI (RXF 393 renal) [µM] | TGI (SF-539 CNS) [µM] | TGI (SK-MEL-2 melanoma) [µM] | TGI (SK-MEL-28 melanoma) [µM] | TGI (SK-OV-3 ovarian) [µM] | TGI (SN12C renal) [µM] | TGI (SNB-19 CNS) [µM] | TGI (SNB-75 CNS) [µM] | TGI (SW-620 colon) [µM] | TGI (U251 CNS) [µM] | TGI (UACC-257 melanoma) [µM] | TGI (UACC-62 melanoma) [µM] |
| --- | --- | --- | --- | --- | --- | --- | --- | --- | --- | --- | --- | --- | --- | --- | --- | --- | --- | --- | --- | --- |
| O=S(=O)(O)c1cc2ccc1/C=C\c1ccc(cc1S(=O)(=O)O)N=Nc1ccc(c(S(=O)(=O)O)c1)/C=C\c1ccc(cc1S(=O)(=O)O)N=N2 | > 100 | > 100 | > 100 | > 100 | > 100 | > 100 | > 100 | > 100 | > 100 | > 100 | > 100 | > 100 | > 100 | > 100 | > 100 | > 100 | > 100 | > 100 | > 100 | > 100 |
| COc1nc(C#CCC(C)O)nc(OC)n1 (stereo not given) | 52.9 | 56.8 | 43.6 | 45.6 | 36.8 | 40.6 | 33.5 | 47.9 | 24.2 | 59.2 | 87.3 | > 100 | > 100 | 42.5 | > 100 | 64 | 47.7 | 76.9 | > 100 | 37.3 |
